From patent US8129366B2, “VLA-4 inhibitory drug” (Daiichi Sankyo Company, Limited, priority 2005, dated 2012)

Target: T1, hα4 and β1 integrins (Homo sapiens, UniProt P05556+P13612)
T1 construct: expressed in transfected cells; host or cells: CHO cells
Experiment: In vitro inhibition of binding between CHO cells expressing hα4 and β1 integrins and Eu3+-hVCAM-1 D1D7-IgG
Settings: for Ki: CHO cells expressing hα4 and β1 integrins, Eu3+-hVCAM-1 D1D7-IgG ligand, without HSA; for IC50: in the presence of 3% human serum albumin (HSA final concentration 3%)
How it was run: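 Transfected CHO cells, cultured 2 days, were incubated with compound and Eu³⁺-hVCAM-1 D1D7-IgG (diluted to 2 nM) for 1 h at room temperature. Buffer was 25 mM HEPES pH 7.5 with 1 mM Ca²⁺, 1 mM Mg²⁺, 4 mM Mn²⁺ and 0.1% BSA, ±3% HSA final. Cells were washed at 4 °C and read by DELFIA time-resolved fluorescence; Ki was derived from IC50 using the Scatchard Kd.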

T1 sequence (P13612 34-1032): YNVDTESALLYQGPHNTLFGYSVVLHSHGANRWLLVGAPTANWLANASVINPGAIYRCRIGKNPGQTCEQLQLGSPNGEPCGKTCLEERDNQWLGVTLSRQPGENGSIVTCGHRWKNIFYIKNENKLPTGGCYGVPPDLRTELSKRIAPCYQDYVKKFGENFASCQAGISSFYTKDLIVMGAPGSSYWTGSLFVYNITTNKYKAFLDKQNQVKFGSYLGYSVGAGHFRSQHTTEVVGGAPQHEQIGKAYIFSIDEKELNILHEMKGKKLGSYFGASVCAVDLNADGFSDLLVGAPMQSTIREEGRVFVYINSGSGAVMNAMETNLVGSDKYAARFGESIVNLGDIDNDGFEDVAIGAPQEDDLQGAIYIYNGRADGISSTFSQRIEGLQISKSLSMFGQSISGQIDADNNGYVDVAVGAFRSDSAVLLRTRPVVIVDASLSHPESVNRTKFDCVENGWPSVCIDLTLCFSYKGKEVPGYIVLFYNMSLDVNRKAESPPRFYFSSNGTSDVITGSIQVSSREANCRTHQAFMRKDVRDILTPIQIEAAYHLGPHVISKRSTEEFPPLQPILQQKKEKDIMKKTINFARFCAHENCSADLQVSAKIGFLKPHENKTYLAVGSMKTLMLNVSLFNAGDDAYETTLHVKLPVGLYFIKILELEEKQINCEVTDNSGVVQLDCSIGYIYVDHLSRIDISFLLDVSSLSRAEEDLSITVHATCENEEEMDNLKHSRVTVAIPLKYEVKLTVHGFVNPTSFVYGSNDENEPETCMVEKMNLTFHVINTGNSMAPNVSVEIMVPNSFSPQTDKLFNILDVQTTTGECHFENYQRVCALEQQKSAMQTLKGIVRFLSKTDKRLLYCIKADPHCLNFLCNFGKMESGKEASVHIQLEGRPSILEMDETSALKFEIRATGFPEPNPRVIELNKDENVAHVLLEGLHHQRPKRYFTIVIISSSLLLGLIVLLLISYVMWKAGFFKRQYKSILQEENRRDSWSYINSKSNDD
T1 sequence (P05556 21-798): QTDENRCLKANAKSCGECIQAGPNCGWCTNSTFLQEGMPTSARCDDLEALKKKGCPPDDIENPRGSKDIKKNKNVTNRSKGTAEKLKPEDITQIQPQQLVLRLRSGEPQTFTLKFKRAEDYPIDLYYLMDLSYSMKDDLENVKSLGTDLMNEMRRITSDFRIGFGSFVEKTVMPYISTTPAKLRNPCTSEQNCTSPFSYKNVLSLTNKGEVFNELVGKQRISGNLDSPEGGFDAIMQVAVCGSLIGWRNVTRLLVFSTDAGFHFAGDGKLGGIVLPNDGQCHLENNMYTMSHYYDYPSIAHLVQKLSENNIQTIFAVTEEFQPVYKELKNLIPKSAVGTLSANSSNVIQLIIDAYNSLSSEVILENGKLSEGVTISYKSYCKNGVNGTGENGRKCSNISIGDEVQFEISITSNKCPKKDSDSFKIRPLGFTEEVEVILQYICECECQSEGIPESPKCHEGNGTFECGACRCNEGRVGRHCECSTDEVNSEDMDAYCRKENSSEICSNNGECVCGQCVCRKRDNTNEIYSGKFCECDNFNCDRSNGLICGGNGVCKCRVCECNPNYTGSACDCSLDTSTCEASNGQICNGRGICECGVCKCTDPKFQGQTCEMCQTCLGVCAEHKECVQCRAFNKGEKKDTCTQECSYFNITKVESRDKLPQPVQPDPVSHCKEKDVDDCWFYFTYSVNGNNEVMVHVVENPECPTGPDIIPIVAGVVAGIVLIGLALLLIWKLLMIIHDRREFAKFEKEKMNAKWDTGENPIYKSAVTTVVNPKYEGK

CN(C)C1CN([C@H]2C[C@@H](CO[C@H]3CC[C@H](C(=O)O)CC3)N(C(=O)Cc3cc(Cl)c(NC(=O)c4csc5ccccc45)cc3Cl)C2)C1 [Example 23, Trans-4-[1-[[4-[(benzo[b]thiophen-3-ylcarbonyl)amino]-2,5-dichlorophenyl]acetyl]-(4S)-[3-(N,N-dimethylamino)azetidin-1-yl]-(2S)-pyrrolidinylmethoxy]cyclohexanecarboxylic acid]
Ki: 2.5 nM | IC50: 14 nM

CO[C@H]1CN([C@H]2C[C@@H](CO[C@H]3CC[C@H](C(=O)O)CC3)N(C(=O)Cc3cc(Cl)c(NC(=O)c4csc5ccccc45)cc3F)C2)C[C@H]1OC [Example 57, Trans-4-[1-[[4-[(benzo[b]thiophen-3-ylcarbonyl)amino]-5-chloro-2-fluorophenyl]acetyl]-(4S)-(cis-3,4-dimethoxypyrrolidin-1-yl)-(2S)-pyrrolidinylmethoxy]cyclohexanecarboxylic acid]
Ki: 1.4 nM | IC50: 6.2 nM

Cn1cc(C(=O)Nc2cc(F)c(CC(=O)N3C[C@@H](N4CCS(=O)(=O)CC4)C[C@H]3CO[C@H]3CC[C@H](C(=O)O)CC3)cc2Cl)c2ccccc21 [Example 160, Trans-4-[1-[[5-chloro-2-fluoro-4-[(1-methyl-1H-indol-3-ylcarbonyl)amino]phenyl]acetyl]-(4S)-(1,1-dioxo-1λ^6-thiomorpholin-4-yl)-(2S)-pyrrolidinylmethoxy]cyclohexanecarboxylic acid]
Ki: 2.4 nM | IC50: 9.9 nM

CO[C@H]1CN([C@H]2C[C@@H](CO[C@H]3CC[C@H](C(=O)O)CC3)N(C(=O)Cc3cc(Cl)c(NC(=O)c4cn(C)c5ccccc45)cc3Cl)C2)C[C@H]1OC [Example 56, Trans-4-[1-[[2,5-dichloro-4-[(1-methyl-1H-indol-3-ylcarbonyl)amino]phenyl]acetyl]-(4S)-(cis-3,4-dimethoxypyrrolidin-1-yl)-(2S)-pyrrolidinylmethoxy]cyclohexanecarboxylic acid]
Ki: 2.4 nM | IC50: 9.2 nM

O=C(Nc1cc(F)c(CC(=O)N2C[C@@H](N3CCC4(CC4)C3)C[C@H]2CO[C@H]2CC[C@H](C(=O)O)CC2)cc1Cl)c1csc2ccccc12 [Example 39, Trans-4-[(4S)-(5-azaspiro[2.4]heptan-5-yl)-1-[[4-[(benzo[b]thiophen-3-ylcarbonyl)amino]-5-chloro-2-fluorophenyl]acetyl]-(2S)-pyrrolidinylmethoxy]cyclohexanecarboxylic acid]
Ki: 0.64 nM | IC50: 4.9 nM

O=C(Nc1cc(Cl)c(CC(=O)N2C[C@@H](N3CCN(CC(F)(F)F)CC3)C[C@H]2CO[C@H]2CC[C@H](C(=O)O)CC2)cc1Cl)c1coc2ccccc12 [Example 125, Trans-4-[1-[[4-[(benzo[b]furan-3-ylcarbonyl)amino]-2,5-dichlorophenyl]acetyl]-(4S)-[4-(2,2,2-trifluoroethyl)piperazin-1-yl]-(2S)-pyrrolidinylmethoxy]cyclohexanecarboxylic acid]
Ki: 3.4 nM | IC50: 26 nM

CN(C)S(=O)(=O)N1CCN([C@H]2C[C@@H](CO[C@H]3CC[C@H](C(=O)O)CC3)N(C(=O)Cc3cc(Cl)c(NC(=O)c4cn(C)c5ccccc45)cc3Cl)C2)CC1 [Example 151, Trans-4-[1-[[2,5-dichloro-4-[(1-methyl-1H-indol-3-ylcarbonyl)amino]phenyl]acetyl]-(4S)-(4-N,N-dimethylsulfamoylpiperazin-1-yl)-(2S)-pyrrolidinylmethoxy]cyclohexanecarboxylic acid]
Ki: 4.2 nM | IC50: 26 nM

Cn1cc(C(=O)Nc2cc(F)c(CC(=O)N3C[C@@H](N4CC[C@H](F)C4)C[C@H]3CO[C@H]3CC[C@H](C(=O)O)CC3)cc2Cl)c2ccccc21 [Example 37, Trans-4-[1-[[5-chloro-2-fluoro-4-[(1-methyl-1H-indol-3-ylcarbonyl)amino]phenyl]acetyl]-(4S)-[(3S)-fluoropyrrolidin-1-yl]-(2S)-pyrrolidinylmethoxy]cyclohexanecarboxylic acid]
Ki: 2.1 nM | IC50: 9.2 nM

Cn1cc(C(=O)Nc2cc(Cl)c(CC(=O)N3C[C@@H](N4CCN(CCF)CC4)C[C@H]3CO[C@H]3CC[C@H](C(=O)O)CC3)cc2Cl)c2ccccc21 [Example 117, Trans-4-[1-[[2,5-dichloro-4-[(1-methyl-1H-indol-3-ylcarbonyl)amino]phenyl]acetyl]-(4S)-[4-(2-fluoroethyl)piperazin-1-yl]-(2S)-pyrrolidinylmethoxy]cyclohexanecarboxylic acid]
Ki: 4.5 nM | IC50: 12 nM

CCN1CCN([C@H]2C[C@@H](CO[C@H]3CC[C@H](C(=O)O)CC3)N(C(=O)Cc3cc(Cl)c(NC(=O)c4csc5ccccc45)cc3F)C2)CC1=O [Example 154, Trans-4-[1-[[4-[(benzo[b]thiophen-3-ylcarbonyl)amino]-5-chloro-2-fluorophenyl]acetyl]-(4S)-(4-ethyl-3-oxopiperazin-1-yl)-(2S)-pyrrolidinylmethoxy]cyclohexanecarboxylic acid]
Ki: 0.92 nM | IC50: 9.1 nM

C[C@@H]1CN([C@H]2C[C@@H](CO[C@H]3CC[C@H](C(=O)O)CC3)N(C(=O)Cc3ccc(NC(=O)c4cn(C)c5ccccc45)c(Cl)c3)C2)C[C@H](C)O1 [Example 85, Trans-4-[1-[[3-chloro-4-[(1-methyl-1H-indol-3-ylcarbonyl)amino]phenyl]acetyl]-(4S)-(cis-2,6-dimethylmorpholin-4-yl)-(2S)-pyrrolidinylmethoxy]cyclohexanecarboxylic acid]
Ki: 2 nM | IC50: 9.2 nM

COC1(C)CN([C@H]2C[C@@H](CO[C@H]3CC[C@H](C(=O)O)CC3)N(C(=O)Cc3cc(Cl)c(NC(=O)c4cn(C)c5ccccc45)cc3F)C2)C1 [Example 16, Trans-4-[1-[[5-chloro-2-fluoro-4-[(1-methyl-1H-indol-3-ylcarbonyl)amino]phenyl]acetyl]-(4S)-(3-methoxy-3-methylazetidin-1-yl)-(2S)-pyrrolidinylmethoxy]cyclohexanecarboxylic acid]
Ki: 5.3 nM | IC50: 41 nM

O=C(Nc1cc(F)c(CC(=O)N2C[C@@H](N3CCCS3(=O)=O)C[C@H]2CO[C@H]2CC[C@H](C(=O)O)CC2)cc1Cl)c1coc2ccccc12 [Example 70, Trans-4-[1-[[4-[(benzo[b]furan-3-ylcarbonyl)amino]-5-chloro-2-fluorophenyl]acetyl]-(4S)-(1,1-dioxo-1λ^6-isothiazolidin-2-yl)-(2S)-pyrrolidinylmethoxy]cyclohexanecarboxylic acid]
Ki: 18 nM | IC50: 62 nM

O=C(Nc1cc(F)c(CC(=O)N2C[C@@H](N3CCSCC3)C[C@H]2CO[C@H]2CC[C@H](C(=O)O)CC2)cc1Cl)c1coc2ccccc12 [Example 159, Trans-4-[1-[[4-[(benzo[b]furan-3-ylcarbonyl)amino]-5-chloro-2-fluorophenyl]acetyl]-(4S)-(thiomorpholin-4-yl)-(2S)-pyrrolidinylmethoxy]cyclohexanecarboxylic acid]
Ki: 4.4 nM | IC50: 13 nM

O=C(Nc1cc(Cl)c(CC(=O)N2C[C@@H](N3CCCCC3)C[C@H]2CO[C@H]2CC[C@H](C(=O)O)CC2)cc1Cl)c1csc2ccccc12 [Example 95, Trans-4-[1-[[4-[(benzo[b]thiophen-3-ylcarbonyl)amino]-2,5-dichlorophenyl]acetyl]-(4S)-(piperidin-1-yl)-(2S)-pyrrolidinylmethoxy]cyclohexanecarboxylic acid]
Ki: 1.3 nM | IC50: 5.3 nM

C[C@@H]1CN([C@H]2C[C@@H](CO[C@H]3CC[C@H](C(=O)O)CC3)N(C(=O)Cc3cc(Cl)c(NC(=O)c4cn(C)c5ccccc45)cc3F)C2)C[C@H](C)O1 [Example 81, Trans-4-[1-[[5-chloro-2-fluoro-4-[(1-methyl-1H-indol-3-ylcarbonyl)amino]phenyl]acetyl]-(4S)-(cis-2,6-dimethylmorpholin-4-yl)-(2S)-pyrrolidinylmethoxy]cyclohexanecarboxylic acid]
Ki: 3 nM | IC50: 12 nM

CN(C)C1CCN([C@H]2C[C@@H](CO[C@H]3CC[C@H](C(=O)O)CC3)N(C(=O)Cc3cc(Cl)c(NC(=O)c4cn(C)c5ccccc45)cc3F)C2)CC1 [Example 109, Trans-4-[1-[[5-chloro-2-fluoro-4-[(1-methyl-1H-indol-3-ylcarbonyl)amino]phenyl]acetyl]-(4S)-[4-(N,N-dimethylamino)piperidin-1-yl]-(2S)-pyrrolidinylmethoxy]cyclohexanecarboxylic acid]
Ki: 3.6 nM | IC50: 5.2 nM

CCOC[C@@H]1CCCN1[C@H]1C[C@@H](CO[C@H]2CC[C@H](C(=O)O)CC2)N(C(=O)Cc2cc(Cl)c(NC(=O)c3csc4ccccc34)cc2Cl)C1 [Example 43, Trans-4-[1-[[4-[(benzo[b]thiophen-3-ylcarbonyl)amino]-2,5-dichlorophenyl]acetyl]-(4S)-[(2S)-ethoxymethylpyrrolidin-1-yl]-(2S)-pyrrolidinylmethoxy]cyclohexanecarboxylic acid]
Ki: 2 nM | IC50: 38 nM

COCCN1CCN([C@H]2C[C@@H](CO[C@H]3CC[C@H](C(=O)O)CC3)N(C(=O)Cc3cc(Cl)c(NC(=O)c4cn(C)c5ccccc45)cc3Cl)C2)CC1 [Example 137, Trans-4-[1-[[2,5-dichloro-4-[(1-methyl-1H-indol-3-ylcarbonyl)amino]phenyl]acetyl]-(4S)-(4-(2-methoxyethyl)piperazin-1-yl)-(2S)-pyrrolidinylmethoxy]cyclohexanecarboxylic acid]
Ki: 2.9 nM | IC50: 8.7 nM

CC1CN([C@H]2C[C@@H](CO[C@H]3CC[C@H](C(=O)O)CC3)N(C(=O)Cc3cc(Cl)c(NC(=O)c4cn(C)c5ccccc45)cc3Cl)C2)CC(C)O1 (stereo partly drawn) [Example 91, Trans-4-[1-[[2,5-dichloro-4-[(1-methyl-1H-indol-3-ylcarbonyl)amino]phenyl]acetyl]-(4S)-(2,6-dimethylmorpholin-4-yl)-(2S)-pyrrolidinylmethoxy]cyclohexanecarboxylic acid]
Ki: 2.4 nM | IC50: 81 nM
